Measured values as given in patent US20060281695A1, “Control of parasites in animals by N-[(phenyloxy)phenyl]-1,1,1-trifluoromethanesulfonamide and N-[(phenylsulfanyl)phenyl]-1,1,1-trifluoromethanesulfonamide derivatives” (priority 2005, published 2006).

Assays:
[1] = test system: cat flea (Ctenocephalides felis); test: Ctenocephalides felis adulticide assay: single dose screen on treated glass surface (% mortality at 1.26 μg/cm^2, 24 hours); type: in vivo; details: for Ctenocephalides felis Mortality (%) 24 h: in vivo; for mortality at 1.26 µg/cm2, 1.26 µg/cm2: Ctenocephalides felis, 24 h, read-out: Ctenocephalides felis Mortality (%) 24 h
Protocol: (§1) The LC50 value is the concentration, expressed as μg/cm^2, that was required to kill 50% of the sample of cat fleas on contact with the tested compound. Certain tests are also reported as the percent of a sample of cat fleas that were killed at a concentration of 1.26 μg/cm^2 (“% mortality”), for the compounds tested in this way.
b) Ctenocephalides felis Adulticide Assay: C.felis single dose screen
Mortality of fleas is the primary endpoint in the assay. […] The concentration chosen (1.26 μg/cm^2) is higher than that known to kill 90% of cat fleas (LC90) using the reference compound, permethrin.
(§2) The test species employed was the cat flea (Ctenocephalides felis). The strain used was obtained from external suppliers as pupae and held in the laboratory under testing conditions until the adults had emerged. Fifteen (15) fleas were used in a minimum of four replicates against a single concentration level (approximately 60 fleas). The insects were selected to be in the adult life stage, aged between 3 and 7 days post emergence.
The compounds to be tested were supplied as solids and were prepared in acetone as described below prior to testing. Samples were stored in a refrigerator (5±1° C.) unless otherwise specified.
During the mortality testing, the temperature was maintained at 25±1° C. Humidity was maintained at 75±5%. The base (area=159 mm^2) of a 100 mL glass Erlenmeyer (conical) flask provided the treatment surface. Flasks were pre-treated with Coatasil™ glass treatment to maximise bio-availability of test compounds by preventing them from binding to glass the surface. The base of the 100 mL Erlenmeyer flask was treated with 0.5 mL of test sample in acetone and gently swirled. This volume was sufficient to cover the base of the flask. Flasks were left to dry for 24 hours before flea exposure.
Adult cat fleas were placed into a sorting chamber, which allowed fleas to jump into the Erlenmeyer flasks. Fifteen (15) adult cat fleas were collected in each flask. The top of the flasks were then covered in Parafilm™ and small holes were made to allow gas exchange. A 0.5 mL volume of acetone as a solvent control was applied to the base of an Erlenmeyer flask and the testing proceeded in the same manner described above. […] Pooled 24 hour mortality data were converted to percentages and are summarized by Table 4, below.
(§3) In Table 7, provided below, are listed the Haemonchus contortus LD99 values (measured in micrograms/mL), the Ctenocephalides felis rapid screening values (measured in % mortality), the Ctenocephalides felis LC50 values (measured in micrograms/cm^2) and the Rhipicephalus sanguineus rapid screening values (measured in % mortality) for selected compounds in accordance with the present invention.

[2] = test system: cat flea (Ctenocephalides felis); test: Ctenocephalides felis adulticide assay: dose response on treated glass surface (LC50, 24 hours); type: in vivo; details: adult cat fleas, 24 h mortality, probit analysis
Protocol: as §1
c) Ctenocephalides felis Adulticide Assay: C. felis dose response The purpose of this example is to determine the LC50 when cat fleas are contacted with a glass surface treated with sample compounds or formulations prepared as described above. Mortality of fleas is defined as follows: fleas are considered dead if they don't move or are on their sides and unable to walk or right themselves. LC50: Lethal Concentration 50— concentration of glass surface treatment at which 50% of the cat fleas are killed.
as §2, with “for each dose” for “against a single concentration”, “(total of” for “(approximately”, “fleas per dose level).” for “fleas).”
The compounds to be tested were dissolved in acetone just prior to testing. Samples of compounds were stored in a refrigerator (5±1° C.) unless otherwise specified. During the mortality testing, the temperature was maintained at 25±1° C. Humidity was maintained at 75±5%. The base (area=159 mm^2) of a 100 mL glass Erlenmeyer (conical) flask provided the treatment surface. Flasks were pre-treated with Coatasil™ glass treatment to maximise bio-availability of test compounds by preventing them from binding to the glass surface.
Six dose levels (concentrations) of test sample, in the form of a serial dilution, were derived from a pilot study and covered a range that produced very low to very high mortality. The base of the 100 mL Erlenmeyer flask was treated with 0.5 mL of test sample in acetone and gently swirled. This volume was sufficient to cover the base of the flask. Flasks were left to dry for 24 hours before flea exposure. Adult cat fleas were lightly anaesthetised by cooling and then placed into a sorting chamber, which allowed fleas to revive and jump into the Erlenmeyer flasks. Fifteen (15) adult cat fleas were collected in each flask. The top of the flasks were then covered in Parafilm™ and small holes made to allow gas exchange. A 0.5 mL volume of acetone was applied to the base of an Erlenmeyer flask and the testing proceeded in the same manner described above. Cat fleas in the treatment containers were held under testing conditions for 24 hours. Mortality resulting from the treatments was recorded at 24 hours. […] 3rd ed. Cambridge Univ. Press, London (1971)].
as §3

[3] = test system: Haemonchus contortus; test: Haemonchus contortus larvacidal (larval development) assay, LD99; type: in vitro
Protocol: The LD99 value is the dose, expressed as […], that was required to kill 99% of a sample of Haemonchus contortus.
a) Haemonchus Contortus Larvacidal Assay:
The effect of compounds on larval development was determined in the assay described by Gill et al. [International Journal of Parasitology 25:463-470 (1995)]. Briefly, in this assay, nematode eggs are applied to the surface of an agar matrix containing the test compound and then allowed to develop through to the L3, infective stage (6 days). The wells for each dilution of every compound (from highest to lowest concentration) are inspected to determine the well number corresponding to the lowest concentration at which development is inhibited in 99% of the nematode larvae present (LD99). Because well numbers correspond to a two-fold serial dilution of each compound, a titre (dilution factor) is generated as 2^n−1, where n is the well number. By dividing the highest concentration tested by the titre an LD99 value can be obtained, representing the concentration required to inhibit development in 99% of the nematode larvae present. The compounds supplied as solid and viscous liquids are dissolved in DMSO. Twelve serial one-half dilutions in DMSO solution are prepared from the stock solution, each of which is then diluted 1/5 with water. Aliquots (10 μl) of each dilution are transferred to the bioassay plates to give a final concentration range of 0.024 to 50 μg/ml.
as §3

[4] = test system: Brown Dog Tick (Rhipicephalus sanguineus); test: Topical application on brown dog ticks, single dose screen (% mortality at 24 hours); type: in vivo; details: adult brown dog ticks, topical 1 μL in acetone on abdomen, single dose 10 μg per tick
Protocol: d) Topical Application On Brown Dog Ticks (Rhipicephalus sanguineus)
The aim of the test is to determine the presence of significant acaricidal activity in sample compounds or formulations when applied topically on brown dog ticks. A tick is defined as dead if it gives no apparent response when: (i) touched lightly and (ii) then observed for 1 minute. To assess the experimental compound for acaricidal activity, a single dose level is chosen based on known results from previous experiments with a commercially available active reference compound.
In the present example, both permethrin and fipronil were employed as reference compounds. The insect species tested was the Brown Dog Tick (Rhipicephalus sanguineus). Mixed sex adult ticks were used for tests. The strain used was cultured from a field strain and supplied as unfed adult ticks (mixed sex). Ticks were maintained in controlled conditions (temp. 18°±2° C., humidity 75±5% RH).
Test compounds (formulations or active ingredients) were stored in a refrigerator (5±1° C.) unless otherwise specified. The temperature was maintained at 25±1° C. and the humidity was ambient. The screening dose chosen was higher than that known kill 90% of insects (LD90) using the reference compound. In the case of topical application of active compounds on adult ticks, the reference compound was fipronil and the dose chosen was 10 μg of active per tick (=10 μg of fipronil/1 μl of acetone). Ticks were each treated on the abdomen with 1 μL of a single dose level of test sample in acetone; ten ticks were treated with solvent only (acetone) in each test. Tests were replicated 4 times (total of 40 ticks treated). Ticks were held in recovery containers maintained under appropriate rearing conditions for 24 hours. Mortality resulting from the treatments was recorded at 24 hours. Pooled 24 hour mortality data were converted to percentages.
as §3

Row | Structure (SMILES) | Ctenocephalides felis Mortality (%) 24 h [1] [%] | Ctenocephalides felis LC50 [2] [μg/cm^2] | Haemonchus contortus LD99 [3] [µg/mL] | mortality at 1.26 µg/cm2, 1.26 µg/cm2 [1] [%] | Rhipicephalus sanguineus Mortality (%) 24 h [4] [%]
1 | O=S(=O)(Nc1cc(C(F)(F)F)ccc1Oc1ccc(F)cc1)C(F)(F)F [Compound 30] | 100 | 0.71 | – | – | –
2 | O=S(=O)(Nc1ccc(Cl)cc1Sc1cccc(Cl)c1)C(F)(F)F [Compound 15] | 100 | 0.30 | 5.5 | – | –
3 | O=S(=O)(Nc1ccc(Cl)cc1Oc1ccc(Cl)cc1Cl)C(F)(F)F [Compound 1, N-[4-Chloro-2-(2,4-dichlorophenoxy)phenyl]-1,1,1-trifluoromethanesulfonamide] | – | 0.32 | 1.5 | 100 | 68
4 | O=S(=O)(Nc1ccc(Cl)cc1Sc1ccc(F)cc1)C(F)(F)F [Compound 20] | 100 | 0.13 | 13.0 | – | 95
5 | O=S(=O)(Nc1ccc(Cl)cc1Oc1ccc(F)c(F)c1)C(F)(F)F [Compound 16] | 100 | 0.78 | 11.0 | – | –
6 | O=S(=O)(Nc1ccc(Cl)cc1Oc1ccccc1C(F)(F)F)C(F)(F)F [Compound 2] | 100 | 0.19 | 5.5 | – | 28
7 | O=S(=O)(Nc1ccc(Cl)cc1Sc1ccccc1F)C(F)(F)F [Compound 68] | 100 | 0.59 | – | – | 55
8 | O=S(=O)(Nc1ccc(Cl)cc1Sc1ccccc1)C(F)(F)F [Compound 59] | 100 | 0.97 | – | – | –
9 | O=S(=O)(Nc1cc(C(F)(F)F)ccc1Oc1cccc(C(F)(F)F)c1)C(F)(F)F [Compound 9] | 94 | 0.09 | 2.5 | – | 25
10 | O=S(=O)(Nc1ccc(C(F)(F)F)cc1Oc1cccc(C(F)(F)F)c1)C(F)(F)F [Compound 55] | 100 | 1.88 | – | – | –
11 | O=S(=O)(Nc1ccc(Cl)cc1Oc1ccccc1F)C(F)(F)F [Compound 14] | 100 | 0.05 | 13.0 | – | 98
12 | Cc1ccccc1Oc1cc(Cl)ccc1NS(=O)(=O)C(F)(F)F [Compound 21] | 100 | 0.12 | 15.0 | – | 90
13 | O=S(=O)(Nc1ccc(Cl)cc1Oc1ccc(F)cc1F)C(F)(F)F [Compound 4] | 98 | 0.27 | 12.0 | – | 83
14 | O=S(=O)(Nc1ccc(Cl)cc1Oc1ccc(Cl)cc1)C(F)(F)F [Compound 5] | 100 | 0.66 | 11.0 | – | –
15 | CCc1ccccc1Oc1cc(Cl)ccc1NS(=O)(=O)C(F)(F)F [Compound 38] | 95 | 0.75 | – | – | –
16 | O=S(=O)(Nc1ccc(Cl)cc1Oc1ccc(F)cc1)C(F)(F)F [Compound 26] | 100 | 0.33 | – | – | –
17 | O=S(=O)(Nc1ccc(Cl)cc1Oc1cccc(F)c1)C(F)(F)F [Compound 25] | 100 | 0.73 | – | – | –
18 | O=S(=O)(Nc1ccc(Cl)cc1Sc1ccc(Cl)cc1)C(F)(F)F [Compound 12, N-[4-Chloro-2-((4-chlorophenyl)sulfanyl)phenyl]-1,1,1-trifluoromethanesulfonamide] | – | 0.15 | 2.8 | 100 | 50
19 | O=S(=O)(Nc1cc(Cl)ccc1Oc1ccc(Cl)cc1Cl)C(F)(F)F [Compound 8] | 62 | 0.59 | 2.75 | – | –
